{
  "source": "patent US12060588B2",
  "about": "“Methods of editing DNA methylation” (Whitehead Institute for Biomedical Research, priority 2016, dated 2024)",
  "key": {"[1]": {"tested_on": "off-target binding sites at Vac14, Tenm4, Vrk1 and Gm42619 loci", "assay": "Bisulfite sequencing of off-target binding sites", "assay_type": "cell-based, mouse"}, "[2]": {"tested_on": "MyoD distal enhancer (DMR-5)", "assay": "Bisulfite sequencing of the MyoD DMR-5 region in C3H10T1/2 cells", "assay_type": "cell-based, mouse", "settings": "with target gRNAs, sorted infection-positive cells", "description": "FIGS. 4A-4H depict targeted demethylation of the MyoD distal enhancer by dCas9-Tet1 to facilitate conversion of fibroblasts to myoblasts. FIG. 4A provides a schematic representation of targeting the MyoD distal enhancer (DE) region in DMR-5 by dCas9-Tet1 (dC-T) with specific gRNAs. […] Cherry positive cells were FACS sorted for RT-qPCR analysis. Bars represent mean±SD of three experimental replicates. FIG. 4C bisulfite sequencing of cells in FIG. 4B. […] Shown is the mean percentage±SD of two biological replicates. […] FIG. 4F provides quantification of MyoD positive cell ratio 14-day post infection with lentiviruses expressing dC-T alone, dC-T with gRNAs targeting DMR-5, and dC-dT with the target gRNAs. […] FIG. 4H provides quantification of myotube density in MHC positive clusters with more than 2 or 5 nuclei at 14-days after infection. […] Data are quantified from 3-5 representative images for F-H. Bars represent mean±SD.\nSix muscle-specific DMRs have been described within the 50 kb upstream region of MyoD gene (Schultz et al., 2015), and DMR-5 overlaps with a known distal enhancer of MyoD (Brunk et al., 1996) as shown in FIG. 4A. […] The cells were cultured for 14 days and analyzed for MyoD and MHC (Myosin Heavy chain, a myotube specific marker) expression. […]"}, "BDNF promoter IV": {"tested_on": "BDNF promoter IV", "assay": "Bisulfite sequencing of BDNF promoter IV in mouse cortical neurons", "assay_type": "cell-based", "settings": "with 4 BDNF gRNAs, in contrast to gRNA negative controls", "protocol": "FIGS. 3A-3E depict targeted demethylation of BDNF promoter IV by dCas9-Tet1 to activate BDNF in neurons. FIG. 3A provides a schematic representation of targeting BDNF promoter IV by dCas9-Tet1 (dC-T) with specific gRNAs to erase methylation and activate BDNF expression. […] Bars are mean t SD of three biological replicates. FIG. 3C provides representative confocal images for BDNF induction in FIG. 3B. Top panel: BDNF expression was induced by 50 mM KCl treatment for 6 hrs. […] Stained in red for MAP2 (top two panels) or Cherry (bottom two panels), green for BDNF, blue for DAPI and grey for dCas9. Scale bar: 50 um. FIG. 3D depicts bisulfite sequencing of neurons in FIG. 3C. […] Shown is the mean percentage±SD of two biological replicates.\nDNA replication-independent active demethylation has been proposed to operate in post-mitotic neurons (Guo et al., 2011; Martinowich et al., 2003). To test whether active demethylation can be induced in post-mitotic neurons, we applied the dCas9-Tet1 system to study the regulation of the BDNF gene. BDNF expression can be induced by neuronal activity accompanied by demethylation of its promoter IV (Chen et al., 2003; Martinowich et al., 2003). We designed 4 gRNAs targeting 11 CpGs in BDNF promoter IV (FIG. 11A) to determine whether dCas9-Tet1 can activate BDNF by inducing demethylation of this promoter (FIG. 3A). […]"}},
  "data": [
    {"substance": "dCas9-Tet1: catalytically inactive Cas9 (dCas9) fused through NLS to the Tet1 catalytic domain, SEQ ID NO: 159; lentivirally expressed with gRNAs", "values": [
      {"measurement": "change in methylation level at second and third strongest (off-target) binding sites", "setting": "[1]", "result": "only marginal change in methylation level"},
      {"measurement": "methylation in the DMR-5 region", "setting": "[2]", "result": "substantial reduction of methylation"},
      {"measurement": "methylation of BDNF promoter IV", "setting": "BDNF promoter IV", "result": "significantly reduced methylation"}
    ]}
  ]
}
